Reference: patent US20250215028A1, “SYNTHETIC GLYCEROPHOSPHOLIPIDS COMPRISING AT LEAST ONE REACTIVE FUNCTION, PROCESS FOR PREPARING SAME AND USES THEREOF IN DIFFERENT APPLICATIONS” (UNIVERSITE DE ROUEN-NORMANDIE, priority 2022, published 2025)

Key:
CgA-AF633 = biological target: T1, CgA-AF633 (Homo sapiens, UniProt P10645); assay: Interaction of CgA-AF633 protein with giant liposomes containing GPL (confocal microscopy); type: binding; conditions: CgA-AF633 4 μM, liposomes 96% DOPC / 4% GPL, FIG. 5
T1 sequence (P10645 19-457): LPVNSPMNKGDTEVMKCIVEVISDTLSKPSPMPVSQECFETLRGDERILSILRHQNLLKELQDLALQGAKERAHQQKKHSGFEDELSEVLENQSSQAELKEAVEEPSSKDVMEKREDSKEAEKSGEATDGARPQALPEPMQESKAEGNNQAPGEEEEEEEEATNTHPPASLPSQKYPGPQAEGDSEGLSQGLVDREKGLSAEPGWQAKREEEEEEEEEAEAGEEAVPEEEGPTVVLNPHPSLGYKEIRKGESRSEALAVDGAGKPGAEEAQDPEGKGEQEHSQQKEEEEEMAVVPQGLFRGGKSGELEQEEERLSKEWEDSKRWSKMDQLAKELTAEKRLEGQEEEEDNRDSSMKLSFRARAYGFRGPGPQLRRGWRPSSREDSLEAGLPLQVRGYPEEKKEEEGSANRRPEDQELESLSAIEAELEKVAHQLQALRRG
Text: This example illustrates the interaction between GPL (XIVa), which fluoresces green (by means of a nitrobenzadiazole-based fluorophore), and a red-fluorescent phosphatidic acid (PA) mobilizing protein, CgA-AF633.
(§1) For this purpose, giant liposomes composed of 96% by mass of dioleoylphosphatidylcholine (DOPC) and 4% by mass of GPL (XIVa), and, for comparative purposes, giant liposomes composed of 96% by mass of dioleoylphosphatidylcholine (DOPC) and 4% by mass of a natural GPL modified with a nitrobenzadiazole-based fluorophore: PA 18:1-6:0 NBD sold under the reference 810175C by Avanti Polar Lipids, at a concentration of 1 mM, are prepared using the polyvinyl alcohol (PVA)-assisted swelling method as described in Carmon et al., FASEB J., 2020, 34:6769-6790).
CgA, rendered red-fluorescent due to its coupling with the fluorophore Alexa 633 or AF633 (CgA-AF633), is incubated at 4 μM concentration with liposomes as prepared above. […]

[1] = Formation of giant liposomes (96% DOPC / 4% GPL) by PVA-assisted swelling, light and confocal microscopy; type: physicochemical; conditions: liposomes 96% by mass DOPC and 4% by mass GPL, 1 mM, FIG. 3 and 4
Protocol: as §1

Spo20p-GFP = biological target: T2, Spo20p-GFP (Saccharomyces cerevisiae, UniProt Q04359); assay: Recruitment of Spo20p-GFP to the plasma membrane of PC12 cells after incubation with GPL (confocal microscopy); type: cell-based; conditions: GPL 100 μM, 5 min incubation, PC12 cells expressing Spo20p-GFP, FIG. 1
T2 construct: expressed in transfected cells; host or cells: PC12 cells
T2 sequence (Q04359 51-91 limits assumed): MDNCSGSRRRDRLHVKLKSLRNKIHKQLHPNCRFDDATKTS
Protocol: This example illustrates the interaction between GPL (Ia) or (Ib) and a phosphatidic acid (PA) mobilizing protein, the green-fluorescent protein Spo20p-GFP, expressed in target cells.
For this purpose, GPL (Ia) and, for comparative purposes, a natural GPL PA 18:1-18:0 (referred to hereinbelow as GPL C1) sold under reference 840861C by Avanti Polar Lipids, are incubated for 5 min at a concentration of 100 μM, with PC12 cells expressing Spo20p-GFP.
Similarly, GPL (Ib) and, for comparative purposes, a natural GPL PA 18:2-18:0 (referred to hereinbelow as GPL C2) sold under reference 840862C by Avanti Polar Lipids, are incubated for 5 min at a concentration of 100 μM, with PC12 cells expressing Spo20p-GFP.
The GPL-free cell medium is used as a control (referred to hereinbelow as […]).
A marker referred to hereinbelow as Membright (obtained from Mayeul Collot UMR-7021, Strasbourg) is incubated for 5 minutes on cells in media as prepared above to specifically mark the cells' plasma membrane.

| Compound | interaction of the CgA-AF633 protein with liposomes containing the GPL (CgA-AF633) | membrane deformations in the liposomes on incubation with CgA-AF633 (CgA-AF633) | participation in the formation of giant liposomes [1] | recruitment of the Spo20p-GFP protein to the plasma membrane (Spo20p-GFP) |
| --- | --- | --- | --- | --- |
| CCCCCCCC/C=C\CCCCCCCC(=O)O[C@@H](COP(=O)(O)O)[C@H](Cn1nnc2c1-c1ccccc1CN(C(=O)CCCCCNc1ccc([N+](=O)[O-])c3nonc13)c1ccccc1-2)OC(=O)CCCCCCCCCCCCCCCCC [GPL (XIVa), (2S,3S)-4-(8-(6-((7-nitrobenzo[c][1,2,5]oxadiazol-4-yl)amino)hexanoyl)-8,9-dihydro-1H-dibenzo[b,f][1,2,3]triazolo[4,5-d]azocin-1-yl)-1-(phosphonooxy)-3-(stearoyloxy)butan-2-yl oleate] | only interacts with liposomes containing GPL (XIVa) | does result in membrane deformations | participates in the formation of giant liposomes |  |
| CCCCCCCC/C=C\CCCCCCCC(=O)O[C@@H](COP(=O)(O)O)[C@H](CN=[N+]=[N-])OC(=O)CCCCCCCCCCCCCCCCC [GPL (Ia), (2S,3S)-4-azido-2-(oleoyloxy)-3-(stearoyloxy)butyl hydrogen phosphate] |  |  |  | bring about recruitment of the Spo20p-GFP protein to the plasma membrane of PC12 cells in the same manner as do the corresponding natural GPLs |
